Reference: publication PMC12892976, “Alkylation-based optimization of antifungal FPPS inhibitors yields a potent, broad-spectrum lipophilic zoledronate derivative” (mBio, 2025)
In brackets after ≈: the same amount, converted by molar mass. Where two headings read alike, the source gives them in different places.

Legend:
Aspergillus flavus [1] = assay: checkerboard drug interaction (FICI, MICc);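 further: simplified diagonal checkerboard screen pairing azole antifungals with FPPS inhibitors, FICI calculated under the Loewe additivity model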; format: cell-based; parameters: INH MICc (KET:INH) / INH MICc (FLC:INH): unit not given beside the values; conditions: A. flavus
Candida glabrata = assay: MIC/MFC broth microdilution (CLSI); conditions: Nakaseomyces glabratus, CBS138;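 further: broth microdilution following CLSI M27-Ed4, MFC taken as the lowest drug level yielding no growth once MIC wells were subcultured on SDA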
Procedure: (§1) Antifungal susceptibility was determined by broth microdilution according to the CLSI guidelines described in M27-Ed4 ([16]). […] MFC was determined by back-plating drug-treated cultures from MIC broths onto SDA plates. The MFC was defined as the lowest concentration from which no colonies could be cultured.

Saccharomyces cerevisiae [2] = assay: checkerboard drug interaction (FICI, MICc);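 on all read-outs here: simplified diagonal checkerboard screen pairing antifungals with FPPS inhibitors, FICI calculated under the Loewe additivity model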; format: cell-based; parameters: INH MICc / INH MICc (ITR:INH) / INH MICc (KET:INH) / INH MICc (FLC:INH): unit not given beside the values; conditions: S. cerevisiae; for INH FD (MIC-MICc fold decrease): fold decrease of inhibitor MIC
eight fungal species [3] = assay: MIC/MFC summary across the eight fungal species of Table 1; format: cell-based
Procedure: The antifungal activity of these compounds was evaluated according to CLSI guidelines ([16]).

HEK-293T cells = assay: MTT reduction cytotoxicity assay; format: cell-based; conditions: Homo sapiens, HEK-293T, 72 h, MTT, 72 h
[4] = test system: Cryptococcus deuterogattii; assay: checkerboard drug interaction (FICI, MICc);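 on all read-outs here: simplified diagonal checkerboard screen pairing antifungal drugs with FPPS inhibitors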; format: cell-based; conditions: C. deuterogattii; for INH FD (MIC-MICc fold decrease): fold decrease of inhibitor MIC
Procedure: (§2) Drug interactions between antifungals and FPPS inhibitors were investigated using a simplified checkerboard diagonal screening method ([45]). […] FICIs were determined according to the Loewe additivity model ([17]).

Aspergillus flavus [5] = assay: MIC/MFC broth microdilution (CLSI); conditions: ATCC204304
Procedure: as §1

Saccharomyces cerevisiae [6] = assay: MIC/MFC broth microdilution (CLSI); format: cell-based; conditions: Saccharomyces cerevisiae S288c
Procedure: as §1

Trichophyton rubrum [7] = assay: MIC/MFC broth microdilution (CLSI); conditions: Trichophyton rubrum
Procedure: as §1

eight fungal species [8] = assay: checkerboard interaction with azoles, summary across the eight species; format: cell-based; conditions: geometric mean MIC in combination with azoles
Text: Synergy between lipophilic FPPS inhibitors and azole antifungals was investigated by determining the fractional inhibitory concentration index (FICI) (Fig. 2; Table S1 Fig. S1) ([17]). […]. Derivatives PLA9 and 11, and PDA9, 11, and 12 antagonized azoles in C. albicans, C. neoformans, and C. deuterogattii, yet were largely synergistic in C. glabrata and S. cerevisiae. […].

Trichophyton rubrum [9] = assay: checkerboard drug interaction (FICI, MICc);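 further: simplified diagonal checkerboard screen pairing azole antifungals with FPPS inhibitors, FICI calculated under the Loewe additivity model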; format: cell-based; conditions: T. rubrum
Procedure: as §2

[10] = Fractional Inhibitory Concentration Index, fluconazole + inhibitor
[11] = Fractional Inhibitory Concentration Index, itraconazole + inhibitor
[12] = Fractional Inhibitory Concentration Index, ketoconazole + inhibitor
[13] = MIC of the inhibitor in combination with fluconazole
[14] = MIC of the inhibitor in combination with itraconazole
[15] = MIC of the inhibitor in combination with ketoconazole
[16] = MIC-MICc fold decrease of fluconazole, negative = increase
[17] = MIC-MICc fold decrease of itraconazole, negative = increase
[18] = MIC-MICc fold decrease of ketoconazole, negative = increase
[19] = FLC:INH combination, MIC of the inhibitor in combination with FLC
[20] = FLC:INH combination, fold decrease of FLC MIC
[21] = ITR:INH combination, MIC of the inhibitor in combination with ITR
[22] = ITR:INH combination, fold decrease of ITR MIC
[23] = KET:INH combination, MIC of the inhibitor in combination with KET
[24] = KET:INH combination, fold decrease of KET MIC

CCCCCCCCCN1CCC[C@H]1C(=O)N[C@@H](CC(=O)OC)C(=O)OC [dmPLA9]
FICI (FLC:INH) (Aspergillus flavus [1]; [10]): 1.5 | FICI (ITR:INH) (Aspergillus flavus [1]; [11]): 2 | FICI (KET:INH) (Aspergillus flavus [1]; [12]): 1 | INH MICc (FLC:INH) (Aspergillus flavus [1]; [13]): 128 | INH MICc (ITR:INH) (Aspergillus flavus [1]; [14]): 256 | INH MICc (KET:INH) (Aspergillus flavus [1]; [15]): 128 | FLC FD (FLC:INH) (Aspergillus flavus [1]; [16]): 1 | ITR FD (ITR:INH) (Aspergillus flavus [1]; [17]): 1 | KET FD (KET:INH) (Aspergillus flavus [1]; [18]): 2 | INH FD (FLC:INH) (Aspergillus flavus [1]; MIC-MICc fold decrease of the inhibitor, with fluconazole): 2 | INH FD (ITR:INH) (Aspergillus flavus [1]; MIC-MICc fold decrease of the inhibitor, with itraconazole): 1 | INH FD (KET:INH) (Aspergillus flavus [1]; MIC-MICc fold decrease of the inhibitor, with ketoconazole): 2 | MFC (Candida glabrata): > 128 µg/mL | MIC (Candida glabrata): 128 µg/mL (≈ 333 µM) | FICI (Saccharomyces cerevisiae [2]; FLC:INH combination): 2.5 | FLC MICc (Saccharomyces cerevisiae [2]; FLC:INH combination, MIC of FLC in combination with the inhibitor): 8 | INH MICc (Saccharomyces cerevisiae [2]; [19]): 16 | FLC FD (MIC-MICc fold decrease) (Saccharomyces cerevisiae [2]; [20]): -2 | INH FD (MIC-MICc fold decrease) (Saccharomyces cerevisiae [2]; FLC:INH combination): 2 | FICI (Saccharomyces cerevisiae [2]; ITR:INH combination): 3 | ITR MICc (Saccharomyces cerevisiae [2]; ITR:INH combination, MIC of ITR in combination with the inhibitor): 0.5 | INH MICc (Saccharomyces cerevisiae [2]; [21]): 32 | ITR FD (MIC-MICc fold decrease) (Saccharomyces cerevisiae [2]; [22]): -2 | INH FD (MIC-MICc fold decrease) (Saccharomyces cerevisiae [2]; ITR:INH combination): 1 | FICI (Saccharomyces cerevisiae [2]; KET:INH combination): 1.06 | KET MICc (Saccharomyces cerevisiae [2]; KET:INH combination, MIC of KET in combination with the inhibitor): 2 | INH MICc (Saccharomyces cerevisiae [2]; [23]): 2 | KET FD (MIC-MICc fold decrease) (Saccharomyces cerevisiae [2]; [24]): 1 | INH FD (MIC-MICc fold decrease) (Saccharomyces cerevisiae [2]; KET:INH combination): 16 | MFC (eight fungal species [3]; across eight species, read-out: Geometric mean MFC): 197 µg/mL (≈ 513 µM) | MIC (eight fungal species [3]; geometric mean across eight species, read-out: GM fungal MIC): 128 µg/mL (≈ 333 µM) | MIC (eight fungal species [3]; read-out: Geometric mean MIC): 128 µg/mL (≈ 333 µM) | IC50 (HEK-293T cells; HEK-293T cells, read-out: IC50): 41.4 µg/mL (≈ 108 µM) | IC50 (HEK-293T cells; read-out: HEK IC50): 41.4 µg/mL (≈ 108 µM) | FICI ([4]; FLC:INH combination): 3 | INH MICc [4, 19]: 128 | FLC FD (MIC-MICc fold decrease) [4, 20]: -2 | INH FD (MIC-MICc fold decrease) ([4]; FLC:INH combination): 1 | FICI ([4]; ITR:INH combination): ≥4 | INH MICc [4, 21]: 256 | ITR FD (MIC-MICc fold decrease) [4, 22]: -4 | INH FD (MIC-MICc fold decrease) ([4]; ITR:INH combination): -2 | FICI ([4]; KET:INH combination): 1.5 | INH MICc [4, 23]: 128 | KET FD (MIC-MICc fold decrease) [4, 24]: 2 | INH FD (MIC-MICc fold decrease) ([4]; KET:INH combination): 1 | MFC (Aspergillus flavus [5]): > 128 µg/mL | MIC (Aspergillus flavus [5]): > 128 µg/mL | MFC (Saccharomyces cerevisiae [6]): 32 µg/mL (≈ 83.2 µM) | MIC (Saccharomyces cerevisiae [6]): 32 µg/mL (≈ 83.2 µM) | MFC (Trichophyton rubrum [7]): > 128 µg/mL | MIC (Trichophyton rubrum [7]): 128 µg/mL (≈ 333 µM) | GM fungal MICc (eight fungal species [8]): 52.3 | FICI (FLC:INH) (Trichophyton rubrum [9]; [10]): ≥4 | FICI (ITR:INH) (Trichophyton rubrum [9]; [11]): 1.5 | FICI (KET:INH) (Trichophyton rubrum [9]; [12]): 2 | INH MICc (FLC:INH) (Trichophyton rubrum [9]; [13]): 256 | INH MICc (ITR:INH) (Trichophyton rubrum [9]; [14]): 128 | INH MICc (KET:INH) (Trichophyton rubrum [9]; [15]): 128 | FLC FD (FLC:INH) (Trichophyton rubrum [9]; [16]): -2 | ITR FD (ITR:INH) (Trichophyton rubrum [9]; [17]): 2 | KET FD (KET:INH) (Trichophyton rubrum [9]; [18]): 1
